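In this assay, cells in 96-well plates receive the compound at five concentrations for 48 hours. Endpoints are linearly interpolated between the surrounding concentrations. TGI is the concentration that stops growth completely.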
Key:
Test in all cases: NCI tumour cell line growth inhibition, 48 h
SK-MEL-5 melanoma = system: SK-MEL-5 melanoma
MDA-MB-435 = system: MDA-MB-435
OVCAR-4 ovarian = system: OVCAR-4 ovarian
HT29 colon = system: HT29 colon
ACHN renal = system: ACHN renal
SNB-19 CNS = system: SNB-19 CNS
EKVX NSCLC = system: EKVX NSCLC
UACC-62 melanoma = system: UACC-62 melanoma
DU-145 prostate = system: DU-145 prostate
K-562 leukemia = system: K-562 leukemia
UO-31 renal = system: UO-31 renal
HL-60(TB) leukemia = system: HL-60(TB) leukemia
MOLT-4 leukemia = system: MOLT-4 leukemia
BT-549 breast = system: BT-549 breast
HS 578T breast = system: HS 578T breast
IGROV1 ovarian = system: IGROV1 ovarian
SW-620 colon = system: SW-620 colon
786-0 renal = system: 786-0 renal
RPMI-8226 leukemia = system: RPMI-8226 leukemia
COLO 205 colon = system: COLO 205 colon
HCT-15 colon = system: HCT-15 colon
SK-MEL-28 melanoma = system: SK-MEL-28 melanoma
SN12C renal = system: SN12C renal
KM12 colon = system: KM12 colon
SF-295 CNS = system: SF-295 CNS
NCI/ADR-RES ovarian = system: NCI/ADR-RES ovarian
MDA-N = system: MDA-N
UACC-257 melanoma = system: UACC-257 melanoma
U251 CNS = system: U251 CNS
SR leukemia = system: SR leukemia
MCF7 breast = system: MCF7 breast
RXF 393 renal = system: RXF 393 renal
CCRF-CEM leukemia = system: CCRF-CEM leukemia
A498 renal = system: A498 renal
OVCAR-5 ovarian = system: OVCAR-5 ovarian
A549 NSCLC = system: A549 NSCLC
PC-3 prostate = system: PC-3 prostate
NCI-H23 lung = system: NCI-H23 lung
HCT-116 colon = system: HCT-116 colon
NCI-H460 lung = system: NCI-H460 lung
NCI-H522 lung = system: NCI-H522 lung
HOP-62 NSCLC = system: HOP-62 NSCLC
SF-268 CNS = system: SF-268 CNS
CAKI-1 renal = system: CAKI-1 renal
M14 melanoma = system: M14 melanoma
HOP-92 NSCLC = system: HOP-92 NSCLC
HCC-2998 colon = system: HCC-2998 colon
LOX IMVI melanoma = system: LOX IMVI melanoma
OVCAR-3 ovarian = system: OVCAR-3 ovarian
NCI-H226 lung = system: NCI-H226 lung
OVCAR-8 ovarian = system: OVCAR-8 ovarian
TK-10 renal = system: TK-10 renal
SF-539 CNS = system: SF-539 CNS
MALME-3M melanoma = system: MALME-3M melanoma
SNB-75 CNS = system: SNB-75 CNS
SK-MEL-2 melanoma = system: SK-MEL-2 melanoma
T-47D breast = system: T-47D breast
SK-OV-3 ovarian = system: SK-OV-3 ovarian

Cc1cccc(Nc2cn(COCc3ccccc3)c(=O)[nH]c2=O)c1
TGI (SK-MEL-5 melanoma): > 100 µM
TGI (MDA-MB-435): > 100 µM
TGI (OVCAR-4 ovarian): > 100 µM
TGI (HT29 colon): > 100 µM
TGI (ACHN renal): > 100 µM
TGI (SNB-19 CNS): > 100 µM
TGI (EKVX NSCLC): > 100 µM
TGI (UACC-62 melanoma): > 100 µM
TGI (DU-145 prostate): > 100 µM
TGI (K-562 leukemia): > 100 µM
TGI (UO-31 renal): > 100 µM
TGI (HL-60(TB) leukemia): > 100 µM
TGI (MOLT-4 leukemia): > 100 µM
TGI (BT-549 breast): > 100 µM
TGI (HS 578T breast): > 100 µM
TGI (IGROV1 ovarian): > 100 µM
TGI (SW-620 colon): > 100 µM
TGI (786-0 renal): > 100 µM
TGI (RPMI-8226 leukemia): > 100 µM
TGI (COLO 205 colon): > 100 µM
TGI (HCT-15 colon): > 100 µM
TGI (SK-MEL-28 melanoma): > 100 µM
TGI (SN12C renal): > 100 µM
TGI (KM12 colon): > 100 µM
TGI (SF-295 CNS): > 100 µM
TGI (NCI/ADR-RES ovarian): 90 µM
TGI (MDA-N): > 100 µM
TGI (UACC-257 melanoma): > 100 µM
TGI (U251 CNS): > 100 µM
TGI (SR leukemia): > 100 µM
TGI (MCF7 breast): > 100 µM
TGI (RXF 393 renal): > 100 µM
TGI (CCRF-CEM leukemia): > 100 µM
TGI (A498 renal): > 100 µM
TGI (OVCAR-5 ovarian): > 100 µM
TGI (A549 NSCLC): > 100 µM
TGI (PC-3 prostate): > 100 µM
TGI (NCI-H23 lung): > 100 µM
TGI (HCT-116 colon): > 100 µM
TGI (NCI-H460 lung): > 100 µM
TGI (NCI-H522 lung): 97.2 µM
TGI (HOP-62 NSCLC): 86.3 µM
TGI (SF-268 CNS): > 100 µM
TGI (CAKI-1 renal): > 100 µM
TGI (M14 melanoma): > 100 µM
TGI (HOP-92 NSCLC): > 100 µM
TGI (HCC-2998 colon): > 100 µM
TGI (LOX IMVI melanoma): > 100 µM
TGI (OVCAR-3 ovarian): > 100 µM

O=C1Nc2ccccc2C1Cc1ccccc1 (configuration not stated)
TGI (NCI-H226 lung): > 100 µM
TGI (SK-MEL-5 melanoma): > 100 µM
TGI (MDA-MB-435): > 100 µM
TGI (OVCAR-4 ovarian): > 100 µM
TGI (HT29 colon): > 100 µM
TGI (ACHN renal): > 100 µM
TGI (OVCAR-8 ovarian): > 100 µM
TGI (SNB-19 CNS): > 100 µM
TGI (EKVX NSCLC): > 100 µM
TGI (UACC-62 melanoma): > 100 µM
TGI (DU-145 prostate): > 100 µM
TGI (K-562 leukemia): > 100 µM
TGI (UO-31 renal): > 100 µM
TGI (HL-60(TB) leukemia): > 100 µM
TGI (MOLT-4 leukemia): > 100 µM
TGI (TK-10 renal): > 100 µM
TGI (HS 578T breast): > 100 µM
TGI (IGROV1 ovarian): > 100 µM
TGI (SW-620 colon): > 100 µM
TGI (786-0 renal): > 100 µM
TGI (SF-539 CNS): > 100 µM
TGI (RPMI-8226 leukemia): > 100 µM
TGI (COLO 205 colon): > 100 µM
TGI (HCT-15 colon): > 100 µM
TGI (SK-MEL-28 melanoma): > 100 µM
TGI (KM12 colon): > 100 µM
TGI (MALME-3M melanoma): > 100 µM
TGI (MDA-N): > 100 µM
TGI (UACC-257 melanoma): > 100 µM
TGI (U251 CNS): > 100 µM
TGI (SR leukemia): > 100 µM
TGI (MCF7 breast): > 100 µM
TGI (CCRF-CEM leukemia): > 100 µM
TGI (A498 renal): > 100 µM
TGI (OVCAR-5 ovarian): > 100 µM
TGI (A549 NSCLC): > 100 µM
TGI (PC-3 prostate): > 100 µM
TGI (NCI-H23 lung): > 100 µM
TGI (SNB-75 CNS): > 100 µM
TGI (HCT-116 colon): > 100 µM
TGI (NCI-H460 lung): > 100 µM
TGI (SK-MEL-2 melanoma): > 100 µM
TGI (NCI-H522 lung): > 100 µM
TGI (HOP-62 NSCLC): > 100 µM
TGI (SF-268 CNS): > 100 µM
TGI (T-47D breast): > 100 µM
TGI (CAKI-1 renal): > 100 µM
TGI (M14 melanoma): > 100 µM
TGI (HOP-92 NSCLC): > 100 µM
TGI (HCC-2998 colon): > 100 µM
TGI (SK-OV-3 ovarian): > 100 µM
TGI (LOX IMVI melanoma): > 100 µM
TGI (OVCAR-3 ovarian): > 100 µM
